Values after ≈ are worked out from the molar mass of the structure shown. Where two headings read alike, the source gives them in different places.
Columns and labels:
A. baumannii = conditions: cited from earlier work
Protocol: (§1) Monte Carlo simulations were conducted for the probability of target attainment (PTA) analysis to guide the selection of optimal dosage regimens. Different dosage regimens were simulated by the PPK model and AUCss,24h were calculated. […] The maximal reductions in colony f ... || FIGURE 4 Probability of target attainment for different dosage regimens of polymyxin B against common carbapenem-resistant organisms according to PK/PD simulations. (A) Loading dose for three bacterial species. […] In preclinical studies, the fAUC/MIC required for various magnitudes of bacterial killing varied among bacterial strains and infection sites. […] Against P. aeruginosa and A. b ... || (+ 2 further places)

P. aeruginosa = conditions: cited from earlier work
Protocol: as §1

[1] = test system: carbapenem-resistant K. pneumoniae; conditions: retrospective, 2021, cited from earlier work
Description: In the present study, microbiological eradication was achieved by the third day of treatment in all eight patients assessed and blood culture remained negative until they had completed the study or withdrew. Clinical improvement occurred in 6 of 8 (75%) of th ...

[2] = test system: carbapenem-resistant K. pneumoniae (CRKP) strains; experiment: Broth microdilution MIC (EUCAST); type: cell-based; conditions: Klebsiella pneumoniae
Protocol: The minimum inhibitory concentrations (MICs) to polymyxin B and meropenem of the collected CRKP strains were determined by broth microdilution according to the European Committee on Antimicrobial Susceptibility Testing (EUCAST) guidelines and interpreted according to EUCAST breakpoints of colistin (Breakpoint tables for interpretation of MICs and zone diameters, Version 11.0); Escherichia coli ATCC 25922 was used as the control strain. Polymerase chain reaction (PCR) was employed to determine the presence of resistance genes (KPC, NDM, IMP, OXA, VIM). The primers were the same as in a published protocol and the sample process procedures were adapted a little bit ([Poirel et al., 2011]). To be brief, a single colony of the bacteria were picked and resuspended in ultra-pure water, and total DNA was extracted by heating bacterial suspension at 100°C for 10 min to lysis and release DNA. The suspension was centrifuged for total DNA which was dissolved in supernatant. Then 2 µl total DNA, 1 µl forward and 1 µl reverse primers (10 µM) for each targeted gene, 12.5 µl 2 × Hieff® Robust PCR Master Mix (Yeasen, Shanghai, China) and ultra-pure water were mixed into a 25 µl reaction mixture. […] Finally amplified DNA fragments were analyzed by electrophoresis in a 1% agarose gel. […]

colistin
fAUC24h/MIC target (A. baumannii; 2-log10 reduction against A. baumannii, murine thigh infection, ref Cheah et al., 2015): 17.6
fAUC/MIC target (A. baumannii; 2 log10 kill, mouse thigh infection, A. baumannii, ref Dudhani et al., 2010a, 2010b): ~17
fAUC24h/MIC target (P. aeruginosa; 2-log10 reduction against P. aeruginosa, murine thigh infection, ref Cheah et al., 2015): 13.5
fAUC/MIC target (P. aeruginosa; 2 log10 kill, mouse thigh infection, P. aeruginosa, ref Dudhani et al., 2010a, 2010b): ~17

NCC[C@H](O)C(=O)N[C@@H]1C[C@H](N)[C@@H](O[C@H]2O[C@H](CN)[C@@H](O)[C@H](O)[C@H]2O)[C@H](O)[C@H]1O[C@H]1O[C@H](CO)[C@@H](O)[C@H](N)[C@H]1O [amikacin]
30-day mortality ([1]; amikacin and its combinations for CRKP infection, ref Rodrigues et al.): 34.5%

C[C@@H](O)[C@H]1C(=O)N2C(C(=O)O)=C(S[C@@H]3CN[C@H](C(=O)N(C)C)C3)[C@H](C)[C@H]12 [meropenem]
MIC ([2]; 9 strains (all except strain No. 2–2), read-out: meropenem MIC): > 64 mg/L
MIC ([2]; strain No. 2–2, read-out: meropenem MIC): 4 mg/L (≈ 10.4 µM)

ceftazidime-avibactam
30-day mortality ([1]; CRKP BSI, alone or combined with other antibiotics, ref Tumbarello et al.): around 25%
